Measured values published in PubChem BioAssay AID2060895 (Molecular Pharmacology Branch, DTP, NCI, 2025).

Tested on: PDC 899932-113-R3-J6 complex spheroid viability
Experiment: Anticancer human tumor 899932-113-R3-J6-PDC patient-derived melanoma cell line growth inhibition [RAS]
Settings: for IC50: curve of first compound; for viability, T/C: stronger effect = lower value
Summary of the method: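 Multi-cell-type spheroids: tumor cells plus HUVEC endothelial cells and mesenchymal stem cells. RAS-pathway inhibitors were combined with targeted agents, each dosed in half-log steps down from clinical Cmax, or from 10 microM when Cmax was unknown.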

[1] = second compound 0.00316 µM, first compound 0.0316 µM
[2] = second compound 0.00316 µM, first compound 0.1 µM
[3] = second compound 0.01 µM, first compound 0.0316 µM
[4] = second compound 0.01 µM, first compound 0.1 µM
[5] = second compound 0.0316 µM, first compound 0.0316 µM
[6] = second compound 0.0316 µM, first compound 0.1 µM
[7] = second compound 0.1 µM, first compound 0.0316 µM
[8] = second compound 0.1 µM, first compound 0.1 µM
[9] = second compound 0.316 µM, first compound 0.0316 µM
[10] = second compound 0.316 µM, first compound 0.1 µM
[11] = second compound 1 µM, first compound 0.0316 µM
[12] = second compound 1 µM, first compound 0.1 µM
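For viability, T/C in this document: spheroids exposed to agents for seven days before readout; 100% = DMSO vehicle control wells.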

## CC(C)n1nc(-c2ccc3oc(N)nc3c2)c2c(N)ncnc21 + C=CC(=O)N1CCN(c2nc(OCC3CCCN3C)nc3c(F)c(-c4nc(N)cc(C)c4C(F)(F)F)c(Cl)cc23)C(C)C1
Second compound 0.00316 µM
  IC50: 90.7 nM
Second compound 0.01 µM
  IC50: > 100 nM
Second compound 0.0316 µM
  IC50: > 100 nM
Second compound 0.1 µM
  IC50: > 100 nM
Second compound 0.316 µM
  IC50: > 100 nM
Second compound 1 µM
  IC50: > 100 nM
Second compound 0.00316 µM, first compound 0.000316 µM
  viability, T/C: 109%
Second compound 0.00316 µM, first compound 0.001 µM
  viability, T/C: 105%
Second compound 0.00316 µM, first compound 0.00316 µM
  viability, T/C: 114%
Second compound 0.00316 µM, first compound 0.01 µM
  viability, T/C: 105%
[1]
  viability, T/C: 79.6%
[2]
  viability, T/C: 47.3%
Second compound 0.01 µM, first compound 0.000316 µM
  viability, T/C: 113%
Second compound 0.01 µM, first compound 0.001 µM
  viability, T/C: 116%
Second compound 0.01 µM, first compound 0.00316 µM
  viability, T/C: 112%
Second compound 0.01 µM, first compound 0.01 µM
  viability, T/C: 115%
[3]
  viability, T/C: 74.5%
[4]
  viability, T/C: 52.6%
Second compound 0.0316 µM, first compound 0.000316 µM
  viability, T/C: 113%
Second compound 0.0316 µM, first compound 0.001 µM
  viability, T/C: 111%
Second compound 0.0316 µM, first compound 0.00316 µM
  viability, T/C: 102%
Second compound 0.0316 µM, first compound 0.01 µM
  viability, T/C: 97.7%
[5]
  viability, T/C: 75.7%
[6]
  viability, T/C: 54.1%
Second compound 0.1 µM, first compound 0.000316 µM
  viability, T/C: 110%
Second compound 0.1 µM, first compound 0.001 µM
  viability, T/C: 121%
Second compound 0.1 µM, first compound 0.00316 µM
  viability, T/C: 106%
Second compound 0.1 µM, first compound 0.01 µM
  viability, T/C: 92.2%
[7]
  viability, T/C: 83.5%
[8]
  viability, T/C: 52.3%
Second compound 0.316 µM, first compound 0.000316 µM
  viability, T/C: 98.9%
Second compound 0.316 µM, first compound 0.001 µM
  viability, T/C: 104%
Second compound 0.316 µM, first compound 0.00316 µM
  viability, T/C: 111%
Second compound 0.316 µM, first compound 0.01 µM
  viability, T/C: 104%
[9]
  viability, T/C: 85.5%
[10]
  viability, T/C: 50%
Second compound 1 µM, first compound 0.000316 µM
  viability, T/C: 108%
Second compound 1 µM, first compound 0.001 µM
  viability, T/C: 108%
Second compound 1 µM, first compound 0.00316 µM
  viability, T/C: 109%
Second compound 1 µM, first compound 0.01 µM
  viability, T/C: 100%
[11]
  viability, T/C: 78.9%
[12]
  viability, T/C: 54.8%

## CC(Nc1ccc2c(c1)OCCn1cc(N3C(=O)OCC3C(F)F)nc1-2)C(N)=O (centres undefined) + C=CC(=O)N1CCN(c2nc(OCC3CCCN3C)nc3c(F)c(-c4nc(N)cc(C)c4C(F)(F)F)c(Cl)cc23)C(C)C1
Second compound 0.00316 µM
  IC50: 1670 nM
Second compound 0.01 µM
  IC50: 2010 nM
Second compound 0.0316 µM
  IC50: 2910 nM
Second compound 0.1 µM
  IC50: 2330 nM
Second compound 0.316 µM
  IC50: 1640 nM
Second compound 1 µM
  IC50: 1510 nM
[1]
  viability, T/C: 97%
[2]
  viability, T/C: 72.4%
Second compound 0.00316 µM, first compound 0.316 µM
  viability, T/C: 69.6%
Second compound 0.00316 µM, first compound 1 µM
  viability, T/C: 55.6%
Second compound 0.00316 µM, first compound 3.16 µM
  viability, T/C: 43%
Second compound 0.00316 µM, first compound 10 µM
  viability, T/C: 36.7%
[3]
  viability, T/C: 81.4%
[4]
  viability, T/C: 75.8%
Second compound 0.01 µM, first compound 0.316 µM
  viability, T/C: 65.6%
Second compound 0.01 µM, first compound 1 µM
  viability, T/C: 55.8%
Second compound 0.01 µM, first compound 3.16 µM
  viability, T/C: 47.5%
Second compound 0.01 µM, first compound 10 µM
  viability, T/C: 32.8%
[5]
  viability, T/C: 90.3%
[6]
  viability, T/C: 75.8%
Second compound 0.0316 µM, first compound 0.316 µM
  viability, T/C: 70.1%
Second compound 0.0316 µM, first compound 1 µM
  viability, T/C: 59.9%
Second compound 0.0316 µM, first compound 3.16 µM
  viability, T/C: 49.7%
Second compound 0.0316 µM, first compound 10 µM
  viability, T/C: 38.9%
[7]
  viability, T/C: 88.2%
[8]
  viability, T/C: 77.2%
Second compound 0.1 µM, first compound 0.316 µM
  viability, T/C: 69.1%
Second compound 0.1 µM, first compound 1 µM
  viability, T/C: 55.6%
Second compound 0.1 µM, first compound 3.16 µM
  viability, T/C: 48.3%
Second compound 0.1 µM, first compound 10 µM
  viability, T/C: 38.6%
[9]
  viability, T/C: 82.3%
[10]
  viability, T/C: 75.9%
Second compound 0.316 µM, first compound 0.316 µM
  viability, T/C: 68.5%
Second compound 0.316 µM, first compound 1 µM
  viability, T/C: 51.9%
Second compound 0.316 µM, first compound 3.16 µM
  viability, T/C: 46.5%
Second compound 0.316 µM, first compound 10 µM
  viability, T/C: 38.6%
[11]
  viability, T/C: 95.5%
[12]
  viability, T/C: 81.2%
Second compound 1 µM, first compound 0.316 µM
  viability, T/C: 61.4%
Second compound 1 µM, first compound 1 µM
  viability, T/C: 53.2%
Second compound 1 µM, first compound 3.16 µM
  viability, T/C: 48.7%
Second compound 1 µM, first compound 10 µM
  viability, T/C: 32%
